Reference: patent publication US20210355107A1, “MULTI-SUBSTITUTED PYRIDONE DERIVATIVES AND MEDICAL USE THEREOF” (Beijing Yuezhikangtai Biomedicines Co., Ltd., priority 2018, published 2021)

Columns and labels:
kinase Axl = target: T1, kinase Axl (Homo sapiens, UniProt P30530); assay: Mobility shift assay, inhibitory activity against kinase Axl; assay type: biochemical; conditions: ATP at Km (81 μM), average of two independent experiments
T1 construct: purchased Carna 08-107
T1 sequence (P30530 473-894 limits assumed): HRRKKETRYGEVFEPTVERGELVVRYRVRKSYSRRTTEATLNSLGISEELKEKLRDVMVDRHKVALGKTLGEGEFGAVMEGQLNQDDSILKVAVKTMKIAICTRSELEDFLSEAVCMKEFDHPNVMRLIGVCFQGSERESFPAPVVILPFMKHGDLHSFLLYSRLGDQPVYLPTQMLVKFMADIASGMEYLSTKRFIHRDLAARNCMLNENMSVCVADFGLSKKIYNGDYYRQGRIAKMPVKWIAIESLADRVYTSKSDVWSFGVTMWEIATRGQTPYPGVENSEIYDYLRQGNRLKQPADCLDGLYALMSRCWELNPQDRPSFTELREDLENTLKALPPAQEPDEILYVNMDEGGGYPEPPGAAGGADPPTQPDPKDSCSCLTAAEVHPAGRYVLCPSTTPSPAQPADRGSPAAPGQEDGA

kinase c-MET = target: T2, kinase c-MET (Homo sapiens, UniProt P08581); assay: Mobility shift assay, inhibitory activity against kinase c-MET; assay type: biochemical; conditions: ATP at Km (35 μM), average of two independent experiments
T2 construct: purchased Carna 08-151

[1] = test system: human non-small cell lung cancer tumor cell strain EBC-1; assay: In vivo anti-tumor activity in model mice with ectopically grafted EBC-1 tumor cells; conditions: EBC-1 subcutaneous tumors in BALB/c-nude mice; 30 mg/kg intragastric once daily for 28 days; FIG. 1
Experimental: (§1) Test Example 5: In Vivo Anti-Tumor Activity of Compounds disclosed herein in Model Mice with Ectopically Grafted Tumor Cells
(§2) 3×10^6 cells of human non-small cell lung cancer tumor cell strain EBC-1 (ATCC) were inoculated subcutaneously into BALB/c-nude model mice (Beijing AniKeeper Biotech, 10 female mice). When the subcutaneous tumors in mice each grew to 175.5 mm^3, the mice were administered intragastrically with test samples.
The mice were divided into a negative control group and an example compound group (compound of Example 3) (30 mg/kg) with 5 mice per group. The mice in the negative control group were administered with 10% solutol HS-15, which was prepared by adding 10 mL of solutol HS-15 to 90 mL of ddH2O and then mixing well by vortexing. […]
After the start of the administration, the body weight and tumor size of each mice were measured twice a week. […]
The anti-tumor efficacy was evaluated based on the growth curve of the tumor (i.e., tumor volume per measurement versus its treatment days) and relative tumor volume during treatment. The relative tumor inhibition (TGI) was calculated according to the following formula: […]
Relative tumor volume RTV was calculated as follows: RTV=[…], where V0 is the tumor volume of the animal at the time of grouping, and Vt is the tumor volume of the animal after treatment.

[2] = Body weight of EBC-1 tumor-bearing mice during treatment; assay type: in vivo; conditions: EBC-1 BALB/c-nude mice; 30 mg/kg intragastric once daily for 28 days; FIG. 2
Experimental: as §1, §2
The mice were divided into a negative control group and an example compound group (compound of Example 3) (30 mg/kg) with 5 mice per group. The mice in the negative control group were administered with 10% solutol HS-15, which was prepared by adding 10 mL of solutol HS-15 to 90 mL of ddH2O and then mixing well by vortexing. The mice in the example compound group were administered with a compound solution at a concentration of […] which was prepared by dissolving the compound of Example 3 in 10% solutol HS-15. The mice in both the solvent control group and the example compound group were subjected to intragastric administration once daily for 28 days at a dosage of 10 μL per gram of body weight.
After the start of the administration, the body weight and tumor size of each mice were measured twice a week. The calculation formula for tumor size is as follows: […]

T2 sequence (P08581 956-1390 limits assumed): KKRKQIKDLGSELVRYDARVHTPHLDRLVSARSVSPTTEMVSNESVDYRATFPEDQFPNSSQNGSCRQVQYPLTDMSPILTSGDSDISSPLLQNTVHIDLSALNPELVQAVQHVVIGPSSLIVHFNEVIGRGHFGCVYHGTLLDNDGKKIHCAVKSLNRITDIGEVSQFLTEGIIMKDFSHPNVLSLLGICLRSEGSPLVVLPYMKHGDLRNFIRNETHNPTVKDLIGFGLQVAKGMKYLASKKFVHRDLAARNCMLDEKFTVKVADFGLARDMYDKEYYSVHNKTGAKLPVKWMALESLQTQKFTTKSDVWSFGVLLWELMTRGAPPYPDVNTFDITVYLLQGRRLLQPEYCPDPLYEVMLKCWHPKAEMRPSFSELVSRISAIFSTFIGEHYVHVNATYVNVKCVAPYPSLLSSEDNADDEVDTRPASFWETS

IC50 (kinase Axl) | IC50 (kinase c-MET) | Structure (SMILES) | tumor growth inhibition (TGI) [1] | body weight change of tumor-bearing mice [2]
0.46 nM | 14 nM | CC(C)n1cc(C(=O)Nc2ccc(-c3cc(-c4cnn(C5CCNCC5)c4)cnc3N)c(F)c2)c(=O)c(-c2ccc(F)cc2)c1C#N [Example 2, N-(4-(2-amino-5-(1-(piperidin-4-yl)-1H-pyrazol-4-yl)pyridin-3-yl)-3-fluorophenyl)-6-cyano-5-(4-fluorophenyl)-1-isopropyl-4-oxo-1,4-dihydropyridine-3-carboxamide] |  | 
2 nM | 26 nM | CC(C)n1cc(C(=O)Nc2cc(F)c(-c3cc(-c4cnn(C)c4)cnc3N)cc2F)c(=O)c(-c2ccc(F)cc2)c1C#N [Example 6, N-(4-(2-amino-5-(1-methyl-1H-pyrazol-4-yl)pyridin-3-yl)-2,5-difluorophenyl)-6-cyano-5-(4-fluorophenyl)-1-isopropyl-4-oxo-1,4-dihydropyridine-3-carboxamide] |  | 
0.28 nM | 3 nM | CC(C)n1cc(C(=O)Nc2ccc(-c3cc(-c4cnn(C)c4)cnc3N)c(F)c2)c(=O)c(-c2ccc(F)cc2)c1C#N [Example 4, N-(4-(2-amino-5-(1-methyl-1H-pyrazol-4-yl)pyridin-3-yl)-3-fluorophenyl)-6-cyano-5-(4-fluorophenyl)-1-isopropyl-4-oxo-1,4-dihydropyridine-3-carboxamide] |  | 
2.8 nM | 23 nM | CCn1cc(-c2cnc(N)c(-c3ccc(NC(=O)c4cn(C5CC5)c(C#N)c(-c5ccc(F)cc5)c4=O)cc3F)c2)cn1 [Example 10, N-(4-(2-amino-5-(1-ethyl-1H-pyrazol-4-yl)pyridin-3-yl)-3-fluorophenyl)-6-cyano-5-(4-fluorophenyl)-1-cyclopropyl-4-oxo-1,4-dihydropyridine-3-carboxamide] |  | 
2.7 nM | 30 nM | CCn1cc(-c2cnc(N)c(-c3ccc(NC(=O)c4cn(C(C)C)c(C#N)c(-c5ccc(F)cc5)c4=O)cc3F)c2)cn1 [Example 3, N-(4-(2-amino-5-(1-ethyl-1H-pyrazol-4-yl)pyridin-3-yl)-3-fluoro-phenyl)-6-cyano-5-(4-fluorophenyl)-1-isopropyl-4-oxo-1,4-dihydropyridine-3-carboxamide] | up to 108% | does not change significantly
3.2 nM |  | COc1cc2nccc(Oc3ccc(NC(=O)c4cn(C)c(C#N)c(-c5ccc(F)cc5)c4=O)cc3F)c2cc1OC [Example 21, 6-cyano-N-(4-((6,7-dimethoxyquinolin-4-yl)oxy)-3-fluoro-phenyl)-5-(4-fluorophenyl)-1-methyl-4-oxo-1,4-dihydropyridine-3-carboxamide] |  | 
